Assay results: paper PMC10501649, “A detoxification pathway initiated by a nuclear receptor TcHR96h in Tetranychus cinnabarinus (Boisduval)” (PLOS Genetics, 2023)
Like-named read-outs stand apart in the source and are kept apart here.

Columns and labels:
[1] = molecular target: TcHR96h (nuclear hormone receptor HR96h); assay: microscale thermophoresis (MST), supported by DARTs; R448A mutation reduces affinity […]; type: binding, Tetranychus cinnabarinus
[2] = molecular target: TcHR96h (nuclear hormone receptor HR96h); assay: as above; type: binding, Tetranychus cinnabarinus; remark: listed apart in the source

Row | Kd [1] [µM] | SMILES | Kd [2] [µM]
1 | 138 | CC(C)(C)c1ccc(C(C#N)C(=O)c2ccccc2C(F)(F)F)cc1 (centres unmarked) [AB-1] | 
2 |  | COCCOC(=O)C(C#N)(C(=O)c1ccccc1C(F)(F)F)c1ccc(C(C)(C)C)cc1 (centres unmarked) [cyflumetofen] | 189
